Laboratory results reported in ChEMBL document CHEMBL4145608, “Dehydrodiconiferyl Alcohol Inhibits Osteoclast Differentiation and Ovariectomy-Induced Bone Loss through Acting as an Estrogen Receptor Agonist” (J Nat Prod, 2018).
Activity calls are given as the source filed them. No cut-off for these calls is given here.

How the values were obtained:
RAW264.7 [1] = test: Inhibition of RANKL-induced osteoclast differentiation in mouse RAW264.7 cells harboring ERbeta siRNA assessed as decrease in TRAP activity at 20 uM after 5 days by microscopy; format: functional, cell-based
RAW264.7 [2] = test: Inhibition of NF-kappaB signaling pathway in mouse RAW264.7 cells assessed as reduction in RANKL-induced IkappaB phosphorylation at 10 to 40 uM after 30 mins by Western blot method; format: cell-based
RAW264.7 [3] = test: Inhibition of NF-kappaB/p38 MAPK signaling pathway in mouse RAW264.7 cells assessed as reduction in RANKL-induced DC-STAMP mRNA level after 24 hrs by qRT-PCR method; format: cell-based
RAW264.7 [4] = test: Inhibition of NF-kappaB/p38 MAPK signaling pathway in mouse RAW264.7 cells assessed as reduction in RANKL-induced c-Fos protein expression level after 24 hrs by Western blot method; format: cell-based
RAW264.7 [5] = test: Inhibition of NF-kappaB/p38 MAPK signaling pathway in mouse RAW264.7 cells assessed as reduction in RANKL-induced NFATc1 nuclear translocation after 24 hrs by Western blot method; format: cell-based
RAW264.7 [6] = test: Inhibition of RANKL-induced osteoclast differentiation in mouse RAW264.7 cells harboring ERalpha siRNA assessed as decrease in number of TRAP-positive multinucleated cells at 20 uM after 5 days by microscopy; format: functional, cell-based
RAW264.7 [7] = test: Inhibition of RANKL-induced osteoclast differentiation in mouse RAW264.7 cells harboring AMPKalpha1 siRNA assessed as decrease in c-Fos mRNA level at 20 uM after 24 hrs by qRT-PCR method; format: functional, cell-based
Mus musculus [8] = test: Anti-osteoporotic activity in Balb/c mouse assessed as inhibition of OVX-mediated decrease in bone marrow density in femur at 25 to 100 mg/kg, ip administered for 4 weeks daily by microcomputed tomography; format: functional, organism-based
Estrogen receptor beta = Estrogen receptor beta (Homo sapiens, UniProt Q92731); test: Inhibition of fluoromone binding to recombinant human full length untagged ERbeta expressed in insect cells after 2 hrs by fluorescence polarization assay
Homo sapiens = species: Homo sapiens; test: Selectivity ratio of IC50 for recombinant human full length untagged ERbeta expressed in insect cells to IC50 for recombinant human full length untagged ERalpha expressed in insect cells
Mus musculus [9] = test: Anti-osteoporotic activity in Balb/c mouse assessed as inhibition of OVX-induced c-Fos mRNA expression level in bone marrow at 25 to 100 mg/kg, ip administered for 4 weeks daily by qRT-PCR method; format: functional, organism-based
RAW264.7 [10] = test: Inhibition of RANKL-induced osteoclast differentiation in mouse RAW264.7 cells harboring AMPKalpha1 siRNA assessed as decrease in NFATc1 mRNA level at 20 uM after 24 hrs by qRT-PCR method; format: functional, cell-based
RAW264.7 [11] = test: Inhibition of RANKL-induced osteoclast differentiation in mouse RAW264.7 cells harboring ERalpha siRNA assessed as decrease in NFATc1 mRNA level at 20 uM after 24 hrs by qRT-PCR method; format: functional, cell-based
RAW264.7 [12] = test: Inhibition of RANKL-induced osteoclast differentiation in mouse RAW264.7 cells harboring ERbeta siRNA assessed as decrease in NFATc1 mRNA level at 20 uM after 24 hrs by qRT-PCR method; format: functional, cell-based
RAW264.7 [13] = test: Inhibition of RANKL-induced osteoclast differentiation in mouse RAW264.7 cells harboring ERbeta siRNA assessed as decrease in number of TRAP-positive multinucleated cells at 20 uM after 5 days by microscopy; format: functional, cell-based
RAW264.7 [14] = test: Inhibition of RANKL-induced osteoclast differentiation in mouse RAW264.7 cells assessed as decrease in NFATc1 mRNA level at 20 uM after 24 hrs in presence of ERbeta antagonist PHTPP by qRT-PCR method; format: functional, cell-based
RAW264.7 [15] = test: Inhibition of RANKL-induced osteoclast differentiation in mouse RAW264.7 cells assessed as decrease in size of TRAP-positive multinucleated cells at 20 uM after 5 days in presence of ERbeta antagonist PHTPP by microscopy; format: functional, cell-based
RAW264.7 [16] = test: Inhibition of NF-kappaB/p38 MAPK signaling pathway in mouse RAW264.7 cells assessed as reduction in RANKL-induced TRAP mRNA level after 24 hrs by qRT-PCR method; format: cell-based
RAW264.7 [17] = test: Inhibition of RANKL-induced osteoclast differentiation in mouse RAW264.7 cells harboring AMPKalpha1 siRNA assessed as decrease in TRAP activity at 10 to 40 uM after 5 days by microscopy; format: functional, cell-based
[18] = target: 5'-AMP-activated protein kinase catalytic subunit alpha-1 (Mus musculus) (UniProt Q5EG47); test: Activation of AMPKalpha1 in mouse RAW264.7 cells assessed as increase in AMPK phosphorylation at 10 to 40 uM after 24 hrs by Western blot method; format: cell-based
[19] = target: Calcium/calmodulin-dependent protein kinase kinase 2 (Mus musculus) (UniProt Q8C078); test: Inhibition of RANKL-induced CAMKKbeta phosphorylation in mouse RAW264.7 cells at 10 to 40 uM after 24 hrs by Western blot analysis; format: cell-based
RAW264.7 [20] = test: Inhibition of RANKL-induced osteoclast differentiation in mouse RAW264.7 cells harboring ERalpha siRNA assessed as decrease in TRAP mRNA level at 20 uM after 24 hrs by qRT-PCR method; format: functional, cell-based
RAW264.7 [21] = test: Inhibition of RANKL-induced PKA phosphorylation in mouse RAW264.7 cells at 10 to 40 uM after 24 hrs by Western blot analysis; format: cell-based
RAW264.7 [22] = test: Inhibition of RANKL-induced osteoclast differentiation in mouse RAW264.7 cells harboring ERbeta siRNA assessed as decrease in size of TRAP-positive multinucleated cells at 20 uM after 5 days by microscopy; format: functional, cell-based
Mus musculus [23] = test: Anti-osteoporotic activity in Balb/c mouse assessed as inhibition of OVX-induced serum CTx level at 25 to 100 mg/kg, ip administered for 4 weeks daily by ELISA; format: functional, organism-based
[24] = target: MAP kinase p38 (Mus musculus) (UniProt P47811+O08911+Q9WUI1+Q9Z1B7); test: Inhibition of p38 MAPK signaling pathway in mouse RAW264.7 cells assessed as reduction in RANKL-induced JNK phosphorylation at 10 to 40 uM after 30 mins by Western blot method; format: cell-based
RAW264.7 [25] = test: Inhibition of RANKL-induced osteoclast differentiation in mouse RAW264.7 cells assessed as decrease in c-Fos mRNA level at 20 uM after 24 hrs in presence of ERalpha antagonist MPP by qRT-PCR method; format: functional, cell-based
Mus musculus [26] = test: Anti-osteoporotic activity in Balb/c mouse assessed as decrease in OVX-induced trabecular spacing in femur at 25 to 100 mg/kg, ip administered for 4 weeks daily by microcomputed tomography; format: functional, organism-based
RAW264.7 [27] = test: Inhibition of RANKL-induced osteoclast differentiation in mouse RAW264.7 cells harboring AMPKalpha1 siRNA assessed as decrease in number of TRAP-positive multinucleated cells after 5 days by microscopy; format: functional, cell-based
RAW264.7 [28] = test: Inhibition of RANKL-induced osteoclast differentiation in mouse RAW264.7 cells assessed as decrease in TRAP activity at 20 uM after 5 days in presence of ERbeta antagonist PHTPP by microscopy; format: functional, cell-based

5'-AMP-activated protein kinase catalytic subunit alpha-1 (Mus musculus), sequence (Q5EG47 whole entry): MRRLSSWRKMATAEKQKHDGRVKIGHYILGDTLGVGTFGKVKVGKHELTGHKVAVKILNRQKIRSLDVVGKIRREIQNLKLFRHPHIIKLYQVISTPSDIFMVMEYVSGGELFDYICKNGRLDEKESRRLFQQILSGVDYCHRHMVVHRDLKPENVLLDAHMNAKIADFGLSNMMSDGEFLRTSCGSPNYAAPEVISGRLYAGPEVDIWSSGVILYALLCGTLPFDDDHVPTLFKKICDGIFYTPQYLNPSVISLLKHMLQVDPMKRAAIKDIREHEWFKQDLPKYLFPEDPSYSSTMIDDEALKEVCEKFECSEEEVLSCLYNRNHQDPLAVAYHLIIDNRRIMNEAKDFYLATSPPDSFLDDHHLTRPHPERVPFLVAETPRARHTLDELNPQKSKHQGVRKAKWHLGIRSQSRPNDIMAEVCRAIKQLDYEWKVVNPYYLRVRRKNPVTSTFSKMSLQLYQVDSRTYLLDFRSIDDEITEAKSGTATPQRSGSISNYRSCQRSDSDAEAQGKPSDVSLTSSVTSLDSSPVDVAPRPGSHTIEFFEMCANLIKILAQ
Estrogen receptor beta, sequence (Q92731 whole entry): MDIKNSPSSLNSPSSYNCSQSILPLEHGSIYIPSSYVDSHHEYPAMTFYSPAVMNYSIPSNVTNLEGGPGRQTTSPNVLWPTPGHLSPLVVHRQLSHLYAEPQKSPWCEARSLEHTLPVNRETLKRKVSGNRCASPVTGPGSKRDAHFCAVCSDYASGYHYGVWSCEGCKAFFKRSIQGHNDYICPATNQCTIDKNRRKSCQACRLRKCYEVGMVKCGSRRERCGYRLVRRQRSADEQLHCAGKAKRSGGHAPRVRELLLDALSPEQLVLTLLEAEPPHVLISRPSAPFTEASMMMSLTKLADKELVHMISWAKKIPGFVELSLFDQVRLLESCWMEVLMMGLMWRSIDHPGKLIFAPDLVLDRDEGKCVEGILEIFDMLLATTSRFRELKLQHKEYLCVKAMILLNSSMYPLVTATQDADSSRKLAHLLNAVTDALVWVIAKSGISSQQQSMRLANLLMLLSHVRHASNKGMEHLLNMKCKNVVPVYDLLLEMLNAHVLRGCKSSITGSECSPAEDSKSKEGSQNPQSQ
Calcium/calmodulin-dependent protein kinase kinase 2 (Mus musculus), sequence (Q8C078 2-588 limits assumed): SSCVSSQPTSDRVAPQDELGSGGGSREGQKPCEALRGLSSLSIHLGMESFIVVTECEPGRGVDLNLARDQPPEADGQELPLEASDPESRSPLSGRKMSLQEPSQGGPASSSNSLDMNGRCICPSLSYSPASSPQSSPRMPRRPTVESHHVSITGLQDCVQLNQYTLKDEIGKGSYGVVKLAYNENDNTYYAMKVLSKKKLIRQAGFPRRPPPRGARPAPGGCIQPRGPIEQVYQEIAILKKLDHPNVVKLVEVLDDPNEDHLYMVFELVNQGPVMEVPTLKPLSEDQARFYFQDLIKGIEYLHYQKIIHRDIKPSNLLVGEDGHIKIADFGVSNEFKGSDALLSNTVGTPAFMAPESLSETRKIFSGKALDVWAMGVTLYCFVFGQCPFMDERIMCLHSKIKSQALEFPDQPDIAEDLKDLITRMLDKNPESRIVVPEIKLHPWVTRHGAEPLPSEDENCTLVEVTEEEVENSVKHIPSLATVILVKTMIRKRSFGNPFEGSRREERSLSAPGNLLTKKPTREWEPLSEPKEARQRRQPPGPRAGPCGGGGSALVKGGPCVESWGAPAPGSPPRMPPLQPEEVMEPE

IC50 (Estrogen receptor beta): 286 nM
Activity [18]: Active
inhibition [19]: inactive
inhibition [24]: inactive
SMILES: COc1cc(C2Oc3c(OC)cc(/C=C/CO)cc3C2CO)ccc1O (stereo not given)
inhibition (RAW264.7 [1]): Active
inhibition (RAW264.7 [2]): Active
inhibition (RAW264.7 [3]): Dose-dependent effect
inhibition (RAW264.7 [4]): Dose-dependent effect
inhibition (RAW264.7 [5]): Dose-dependent effect
inhibition (RAW264.7 [6]): inactive
inhibition (RAW264.7 [7]): inactive
inhibition (Mus musculus [8]): Active
Ratio IC50 (Homo sapiens): 4.63
inhibition (Mus musculus [9]): Active
inhibition (RAW264.7 [10]): inactive
inhibition (RAW264.7 [11]): inactive
inhibition (RAW264.7 [12]): Active
inhibition (RAW264.7 [13]): Active
inhibition (RAW264.7 [14]): Active
inhibition (RAW264.7 [15]): Active
inhibition (RAW264.7 [16]): Dose-dependent effect
inhibition (RAW264.7 [17]): inactive
inhibition (RAW264.7 [20]): inactive
inhibition (RAW264.7 [21]): inactive
inhibition (RAW264.7 [22]): Active
inhibition (Mus musculus [23]): Active
inhibition (RAW264.7 [25]): inactive
Activity (Mus musculus [26]): Active
inhibition (RAW264.7 [27]): inactive
inhibition (RAW264.7 [28]): Active
